Where no end group is shown, it is not given here.
Legend:
[1] = tested on: growth hormone release; assay: Peptide effects on growth hormone release in the pentobarbital-anesthetized rat (plasma GH by RIA); type: in vivo
Method: In this evaluation, the procedures described by W. A. Murphy et al., Endocrinology 109: 491-495 (1980), were employed.
In growth hormone (GH) experiments, male rats (Charles Rivers) were anesthetized with NEMBUTAL® (6 mg per 100 g body weight) which also served to maintain stimulated plasma GH levels. Exactly 30 minutes after the rats were anesthetized, 0.5 mL of saline or the test peptide in saline was administered as a SC bolus. A 1 mL blood sample was drawn from the jugular vein 15 minutes after the injection of the peptide in saline or at the indicated times in the time course assay (p26). GH levels were determined using NIADDKD rat GH RIA components.

[2] = tested on: plasma growth hormone; assay: Evaluation of peptides in vivo in sheep: plasma GH levels in lambs injected intravenously at 100 ng/kg; conditions: for Plasma GH Peak / Plasma GH Post-inj Mean: 100 ng/kg IV; for Plasma GH Peak: control 12.2; for Plasma GH Post-inj Mean: two hours after treatment, means of 8 samples/animal from 8 animals, control 8.7; for Plasma GH Pre-inj Mean: before IV injection of 100 ng/kg, means of 5 samples/animal from 8 animals, control 8.4
Method: The purpose of this experiment is to compare the GH releasing activities of several GRF analogs selected for expected high potency and the lack of either a terminal amide or a D-amino acid. The analogs to be compared in wether lambs at 100 ng/kg (IV) are tri-isopropyl-GRF(1-29)-NH2, tri-isopropyl-GRF(1-29)-OH, tri-isopropyl-GRF(1-40)OH, D-ala^2, arg^12,21 -GRF (1-29)-OH, D-ala^2, arg^12,21 -GRF(1-29)-NH2, GRF(1-40)-OH and GRF(1-29)-NH2
A balanced 8×8 Latin square design will be used to test the following 8 treatments:
Sheep are maintained in individual metabolism cages at all times. Each sheep has previously received an indwelling jugular cannula which is flushed daily with heparinized (400-800 IU/ml) sterile saline to help maintain […].
All compounds are solubilized at 5 ug/ml in sterile saline containing 1% Tween 80 and injected intravenously at 100 ng/kg. Control lambs receive equal volumes of the vehicle only. The drugs are prepared each day just prior to injection to minimize sticking to the vials.
Blood is collected in heparinized tubes at 15 minute intervals for one hour prior to and for two hours after the treatments are administered. Plasma samples are removed by centrifugation and frozen.
Blood samples are taken from each animal at 15 minute intervals for 3 hours each day during the 8 day trial period. The samples are analyzed for plasma growth hormone (ng/ml). Data obtained are reported below as near values obtained for each treatment.

“[N^α -Isopropyl-Tyr^1 ]GRF(1-29)NH2 [N^α iPrTyr^1]” was tested, and the “PLASMA GH” value ([1]; dose 0.2 ug/100 g BW SC, 15 min, saline control 325 ± 52) was 1334 ± 394 ng/mL, the “PLASMA GH” value ([1]; dose 2 ug/100 g BW SC, 15 min, saline control 325 ± 52) was 3250 ± 362 ng/mL and the “PLASMA GH” value ([1]; dose 20 ug/100 g BW SC, 15 min, saline control 325 ± 52) was 3290 ± 241 ng/mL. For the same molecule, the POTENCY ([1]; relative to GRF(1-29)NH2 (=1), estimated by single dose comparisons to pooled standard responses) was ~ 60.

In the case of “GRF(1-40)-OH (YADAIFTNSYRKVLGQLSARKLLQDIMSRQQGESNQERGA-OH; UniProt P01286 32-71, looked up, fragment) [unalkylated human GRF(1-40) free acid, comparator in the sheep test, reference compound]”, the “Plasma GH Peak” value [2] is reported as 92.3 ng/mL, the “Plasma GH Post-inj Mean” value [2] is reported as 25.5 ng/mL and the “Plasma GH Pre-inj Mean” value [2] is reported as 9.4 ng/mL.

`CC[C@H](C)[C@H](NC(=O)[C@H](C)NC(=O)[C@H](CC(=O)O)NC(=O)[C@H](C)NC(=O)[C@H](Cc1ccc(O)cc1)NC)C(=O)N[C@@H](Cc1ccccc1)C(=O)N[C@H](C(=O)N[C@@H](CC(N)=O)C(=O)N[C@@H](CO)C(=O)N[C@@H](Cc1ccc(O)cc1)C(=O)N[C@@H](CCCNC(=N)N)C(=O)N[C@@H](CCCCN)C(=O)N[C@H](C(=O)N[C@@H](CC(C)C)C(=O)NCC(=O)N[C@@H](CCC(N)=O)C(=O)N[C@@H](CC(C)C)C(=O)N[C@@H](CO)C(=O)N[C@@H](C)C(=O)N[C@@H](CCCNC(=N)N)C(=O)N[C@@H](CCCCN)C(=O)N[C@@H](CC(C)C)C(=O)N[C@@H](CC(C)C)C(=O)N[C@@H](CCC(N)=O)C(=O)N[C@@H](CC(=O)O)C(=O)N[C@H](C(=O)N[C@@H](CCSC)C(=O)N[C@@H](CO)C(=O)N[C@@H](CCCNC(=N)N)C(N)=O)[C@@H](C)CC)C(C)C)[C@@H](C)O` [N^α MeTry^1, [N α-MeTyr^1]hpGRF(1-29)-NH2, reference compound] was tested, and the “PLASMA GH” value ([1]; dose 30 ug/100 g BW SC, blood 15 min after injection, saline control 243 ± 25) was 1843 ± 196 ng/mL, the “PLASMA GH” value ([1]; dose 75 ug/100 g BW SC, blood 15 min after injection, saline control 243 ± 25) was 2613 ± 418 ng/mL and the POTENCY ([1]; relative to GRF(1-29)NH2 (=1) as standard, by 4point assay (95% CI limits in parentheses)) was 0.42.

“[N ^α -Isopropyl-Tyr^1, N ^ε -isopropyl-Lys^12,21 ]GRF(1-40)OH [tri-isopropyl-GRF(1-40)-OH]” was tested, and the “Plasma GH Peak” value [2] was 108.6 ng/mL, the “Plasma GH Post-inj Mean” value [2] was 34.0 ng/mL and the “Plasma GH Pre-inj Mean” value [2] was 9.5 ng/mL.

Reference: US5112808A, “Alkylated hormone-releasing peptides and method of treatig mammals therewith” (American Cyanamid Company, priority 1988, dated 1992)
